This is an account of results in patent US9834542B2, “LXR modulators” (BRISTOL-MYERS SQUIBB COMPANY, priority 2013, dated 2017).

The structures appear in SMILES notation.

The target in this assay is T1, LXRβ (Homo sapiens, UniProt P55055).
T1 construct: Co-transfection expression plasmids, comprising full-length LXRα (pCMX-h LXRα[…] or LXRβ (pCMX-hLXRβ)); expressed in transfected cells; host or cells: CV-1 African Green Monkey Kidney Cells
T1 sequence (P55055 1-460): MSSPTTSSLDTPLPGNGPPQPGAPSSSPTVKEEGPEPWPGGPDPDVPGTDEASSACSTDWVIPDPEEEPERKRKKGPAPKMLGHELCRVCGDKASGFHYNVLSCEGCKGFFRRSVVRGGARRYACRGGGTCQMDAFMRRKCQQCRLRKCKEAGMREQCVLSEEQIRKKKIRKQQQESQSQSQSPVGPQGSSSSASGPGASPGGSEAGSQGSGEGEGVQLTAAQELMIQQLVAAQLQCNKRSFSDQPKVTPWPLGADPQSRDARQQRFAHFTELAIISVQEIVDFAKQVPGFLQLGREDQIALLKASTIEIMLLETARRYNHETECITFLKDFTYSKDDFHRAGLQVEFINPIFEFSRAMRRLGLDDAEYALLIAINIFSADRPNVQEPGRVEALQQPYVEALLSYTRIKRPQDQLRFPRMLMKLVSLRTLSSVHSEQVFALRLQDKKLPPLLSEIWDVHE
T1 sequence (P19793 1-462 partner): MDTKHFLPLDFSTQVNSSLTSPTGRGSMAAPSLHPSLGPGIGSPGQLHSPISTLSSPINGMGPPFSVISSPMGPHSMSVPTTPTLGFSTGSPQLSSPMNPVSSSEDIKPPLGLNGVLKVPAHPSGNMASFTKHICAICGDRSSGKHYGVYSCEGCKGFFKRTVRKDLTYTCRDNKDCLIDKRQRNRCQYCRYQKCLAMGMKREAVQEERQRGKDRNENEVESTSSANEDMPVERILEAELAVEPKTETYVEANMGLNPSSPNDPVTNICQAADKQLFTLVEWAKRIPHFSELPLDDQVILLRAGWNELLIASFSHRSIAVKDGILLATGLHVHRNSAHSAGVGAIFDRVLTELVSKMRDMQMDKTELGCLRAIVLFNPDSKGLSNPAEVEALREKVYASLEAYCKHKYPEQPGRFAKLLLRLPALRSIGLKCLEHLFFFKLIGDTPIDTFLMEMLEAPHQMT
Briefly: Co-transfection assay (LXRE luciferase reporter), LXRβ. To be noted: for EC50: CV-1 cells transfected with pCMX-hLXRβ and LXREx1-Tk-Luciferase, 20 hours incubation; for Emax: LXRβ co-transfection, relative to high control 1-(2,4-difluorobenzyl)-2-oxo-6-(4-phenoxyphenyl)-4-(trifluoromethyl)-1,2-dihydropyridine-3-carbonitrile, read-out: % Efficacy. The format is cell-based. The method, boiled down: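 Luciferase output from an LXRE-Tk reporter measured after 20 h, 37 °C compound exposure of transiently transfected CV-1 cells expressing human LXRβ with endogenous RXR. EC50 fitted from 11-point half-log dose responses (mean of ≥2 runs); % efficacy versus maximal response of the reference agonist.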
(In general: A reporter such as luciferase makes a cellular process visible.)

In general, EC50 refers to the concentration needed to bring the measured effect to its halfway point. A high value points to a need for much substance. Turning to `Cc1nc(C(F)(F)F)cn1-c1c(Cl)cc(-c2cc(F)c(CO)c(S(C)(=O)=O)c2)cc1-n1nncc1-c1ccc(OC(F)(F)F)cc1` [Example 196, [3′-chloro-3-fluoro-5-(methylsulfonyl)-4′-[2-methyl-4-(trifluoromethyl)-1H-imidazol-1-yl]-5′-(5-{4-[(trifluoromethyl)oxy]phenyl}-1H-1,2,3-triazol-1-yl)biphenyl-4-yl]methanol], the EC50 turned out to be 241 nM and the Emax worked out at 68%.

Take `Cc1nc(C(F)(F)F)cn1-c1c(F)cc(-c2cc(Cl)c(CO)c(S(C)(=O)=O)c2)cc1-n1nncc1-c1ccc(OC(F)(F)F)cc1` [Example 197, [3-chloro-3′-fluoro-5-(methylsulfonyl)-4′-[2-methyl-4-(trifluoromethyl)-1H-imidazol-1-yl]-5′-(5-{4-[(trifluoromethyl)oxy]phenyl}-1H-1,2,3-triazol-1-yl)biphenyl-4-yl]methanol]: the EC50 was 252 nM and the Emax was found to be 76%.

Regarding `Cc1nc(C(F)(F)F)cn1-c1c(F)cc(-c2cc(F)c(CO)c(S(C)(=O)=O)c2)cc1-n1nncc1-c1ccc(Cl)cc1` [Example 198, {3′-[5-(4-chlorophenyl)-1H-1,2,3-triazol-1-yl]-3,5′-difluoro-5-(methylsulfonyl)-4′-[2-methyl-4-(trifluoromethyl)-1H-imidazol-1-yl]biphenyl-4-yl}methanol], a half-maximal response (EC50) required 92 nM and the Emax came to 87%.

On to `Cc1nc(C(F)(F)F)cn1-c1c(F)cc(-c2cccc(S(=O)(=O)N3CCCC3)c2)cc1-n1nncc1-c1ccc(OC(F)(F)F)cc1` [Example 199, 1-{5-fluoro-4-[2-methyl-4-(trifluoromethyl)-1H-imidazol-1-yl]-3′-(pyrrolidin-1-ylsulfonyl)biphenyl-3-yl}-5-{4-[(trifluoromethyl)oxy]phenyl}-1H-1,2,3-triazole], for which the EC50 came out at 384 nM and the Emax was 66%.

Regarding `Cc1nc(C(F)(F)F)cn1-c1c(F)cc(-c2cc(F)c(CO)c(S(C)(=O)=O)c2)cc1-n1nncc1-c1ccc(Cl)cc1Cl` [Example 200, {3′-[5-(2,4-dichlorophenyl)-1H-1,2,3-triazol-1-yl]-3,5′-difluoro-5-(methylsulfonyl)-4′-[2-methyl-4-(trifluoromethyl)-1H-imidazol-1-yl]biphenyl-4-yl}methanol], the response was half-maximal at 74 nM (EC50) and the Emax stood at 83%.

As for `Cc1nc(C(F)(F)F)cn1-c1c(F)cc(-c2cccc(S(C)(=O)=O)c2)cc1-n1nncc1-c1ccc(OC(F)(F)F)cc1` [Example 201, 1-{5-fluoro-3′-(methylsulfonyl)-4-[2-methyl-4-(trifluoromethyl)-1H-imidazol-1-yl]biphenyl-3-yl}-5-{4-[(trifluoromethyl)oxy]phenyl)-1H-1,2,3-triazole], a half-maximal effect (EC50) was put at 127 nM and the Emax was determined as 81%.

Turning to `Cc1nc(C(F)(F)F)cn1-c1c(F)cc(-c2cc(F)c(CO)c(S(C)(=O)=O)c2)cc1-n1nncc1-c1ccc(OC(F)(F)F)cc1` [Example 202, [3,3′-difluoro-5-(methylsulfonyl)-4′-[2-methyl-4-(trifluoromethyl)-1H-imidazol-1-yl]-5′-(5-{4-[(trifluoromethyl)oxy]phenyl)-1H-1,2,3-triazol-1-yl)biphenyl-4-yl]methanol], the EC50 was determined as 106 nM and the Emax came out at 77%.

`Cc1nc(C(F)(F)F)cn1-c1c(F)cc(-c2ccc(CO)c(S(C)(=O)=O)c2)cc1-n1nncc1-c1ccc(OC(F)(F)F)cc1` [Example 203, [3′-fluoro-3-(methylsulfonyl)-4′-[2-methyl-4-(trifluoromethyl)-1H-imidazol-1-yl]-5′-(5-{4-[(trifluoromethyl)oxy]phenyl}-1H-1,2,3-triazol-1-yl)biphenyl-4-yl]methanol]: the EC50 was 127 nM and the Emax came out at 71%.

As for `Cc1nc(C(F)(F)F)cn1-c1c(F)cc(-c2cccc(S(C)(=O)=O)c2)cc1-n1nncc1-c1ccc(Cl)cc1` [Example 204, 5-(4-chlorophenyl)-1-{5-fluoro-3′-(methylsulfonyl)-4-[2-methyl-4-(trifluoromethyl)-1H-imidazol-1-yl]biphenyl-3-yl}-1H-1,2,3-triazole], a half-maximal response (EC50) required 110 nM and the Emax is 97%.

Regarding `CNS(=O)(=O)c1cccc(-c2cc(F)c(-n3cc(C(F)(F)F)nc3C)c(-n3nncc3-c3ccc(OC(F)(F)F)cc3)c2)c1` [Example 205, 3′-fluoro-N-methyl-4′-[2-methyl-4-(trifluoromethyl)-1H-imidazol-1-yl]-5′-(5-{4-[(trifluoromethyl)oxy]phenyl}-1H-1,2,3-triazol-1-yl)biphenyl-3-sulfonamide], the EC50 was 111 nM and the Emax is 85%.

As for `COCc1c(F)cc(-c2cc(F)c(-n3cc(C(F)(F)F)nc3C)c(-n3nncc3-c3ccc(OC(F)(F)F)cc3)c2)cc1S(C)(=O)=O` [Example 206, 1-{3′,5-difluoro-4′-[(methyloxy)methyl]-5′-(methylsulfonyl)-4-[2-methyl-4-(trifluoromethyl)-1H-imidazol-1-yl]biphenyl-3-yl}-5-{4-[(trifluoromethyl)oxy]phenyl}-1H-1,2,3-triazole], a half-maximal effect (EC50) was put at 88 nM and the Emax was determined as 95%.

For `COCc1c(F)cc(-c2cc(F)c(-n3cc(C(F)(F)F)nc3C)c(-n3nncc3-c3ccc(Cl)cc3)c2)cc1S(C)(=O)=O` [Example 207, 5-(4-chlorophenyl)-1-{3′,5-difluoro-4′-[(methyloxy)methyl]-5′-(methylsulfonyl)-4-[2-methyl-4-(trifluoromethyl)-1H-imidazol-1-yl]biphenyl-3-yl}-1H-1,2,3-triazole], a half-maximal response (EC50) required 176 nM and the Emax was 76%.

In the case of `Cc1nc(C(F)(F)F)cn1-c1c(F)cc(-c2cccc(S(=O)(=O)NCCO)c2)cc1-n1nncc1-c1ccc(OC(F)(F)F)cc1` [Example 208, 3′-fluoro-N-(2-hydroxyethyl)-4′-[2-methyl-4-(trifluoromethyl)-1H-imidazol-1-yl]-5′-(5-{4-[(trifluoromethyl)oxy]phenyl}-1H-1,2,3-triazol-1-yl)biphenyl-3-sulfonamide], it took 1270 nM to reach a half-maximal effect (EC50) and the Emax is 77%.

`CNS(=O)(=O)c1cccc(-c2cc(F)c(-n3cc(C(F)(F)F)nc3C)c(-n3nncc3-c3ccc(Cl)cc3)c2)c1` [Example 209, 3′-[5-(4-chlorophenyl)-1H-1,2,3-triazol-1-yl]-5′-fluoro-N-methyl-4′-[2-methyl-4-(trifluoromethyl)-1H-imidazol-1-yl]biphenyl-3-sulfonamide]: a half-maximal effect (EC50) was put at 214 nM and the Emax was determined as 80%.

As for `Cc1nc(C(F)(F)F)cn1-c1c(F)cc(-c2ccc(CO)c(S(C)(=O)=O)c2)cc1-n1nncc1-c1ccc(Cl)cc1` [Example 210, {3′-[5-(4-chlorophenyl)-1H-1,2,3-triazol-1-yl]-5′-fluoro-3-(methylsulfonyl)-4′-[2-methyl-4-(trifluoromethyl)-1H-imidazol-1-yl]biphenyl-4-yl}methanol], a half-maximal response (EC50) required 394 nM and the Emax is 78%.

For `Cc1nc(C(F)(F)F)cn1-c1ccc(-c2cc(F)c(CO)c(S(C)(=O)=O)c2)cc1-n1nncc1-c1ccc(OC(F)(F)F)cc1` [Example 211, (3-fluoro-4′-(2-methyl-4-(trifluoromethyl)-1H-imidazol-1-yl)-5-(methylsulfonyl)-3′-(5-(4-(trifluoromethoxy)phenyl)-1H-1,2,3-triazol-1-yl)-[1,1′-biphenyl]-4-yl)methanol], a half-maximal response (EC50) required 127 nM and the Emax came to 99%.

As to `Cc1nc(C(F)(F)F)cn1-c1ccc(-c2cc(Cl)c(CO)c(S(C)(=O)=O)c2)cc1-n1nncc1-c1ccc(OC(F)(F)F)cc1` [Example 212, (3-chloro-4′-(2-methyl-4-(trifluoromethyl)-1H-imidazol-1-yl)-5-(methylsulfonyl)-3′-(5-(4-(trifluoromethoxy)phenyl)-1H-1,2,3-triazol-1-yl)-[1,1′-biphenyl]-4-yl)methanol], a half-maximal effect (EC50) was put at 430 nM and the Emax was 101%.

As to `CNS(=O)(=O)c1cccc(-c2ccc(-n3cc(C(F)(F)F)nc3C)c(-n3nncc3-c3ccc(OC(F)(F)F)cc3)c2)c1` [Example 213, N-methyl-4′-(2-methyl-4-(trifluoromethyl)-1H-imidazol-1-yl)-3′-(5-(4-(trifluoromethoxy)phenyl)-1H-1,2,3-triazol-1-yl)-[1,1′-biphenyl]-3-sulfonamide], the EC50 was found to be 94 nM and the Emax was determined as 89%.
